The target in this assay is T1, L-CPT1 (human liver CPT1) (Homo sapiens, UniProt P50416).
T1 construct: made in house; host or cells: Pichia pastoris strain X-33 (pGAPZB/pGAPZA), crude cell-free extract
T1 sequence (P50416 1-773): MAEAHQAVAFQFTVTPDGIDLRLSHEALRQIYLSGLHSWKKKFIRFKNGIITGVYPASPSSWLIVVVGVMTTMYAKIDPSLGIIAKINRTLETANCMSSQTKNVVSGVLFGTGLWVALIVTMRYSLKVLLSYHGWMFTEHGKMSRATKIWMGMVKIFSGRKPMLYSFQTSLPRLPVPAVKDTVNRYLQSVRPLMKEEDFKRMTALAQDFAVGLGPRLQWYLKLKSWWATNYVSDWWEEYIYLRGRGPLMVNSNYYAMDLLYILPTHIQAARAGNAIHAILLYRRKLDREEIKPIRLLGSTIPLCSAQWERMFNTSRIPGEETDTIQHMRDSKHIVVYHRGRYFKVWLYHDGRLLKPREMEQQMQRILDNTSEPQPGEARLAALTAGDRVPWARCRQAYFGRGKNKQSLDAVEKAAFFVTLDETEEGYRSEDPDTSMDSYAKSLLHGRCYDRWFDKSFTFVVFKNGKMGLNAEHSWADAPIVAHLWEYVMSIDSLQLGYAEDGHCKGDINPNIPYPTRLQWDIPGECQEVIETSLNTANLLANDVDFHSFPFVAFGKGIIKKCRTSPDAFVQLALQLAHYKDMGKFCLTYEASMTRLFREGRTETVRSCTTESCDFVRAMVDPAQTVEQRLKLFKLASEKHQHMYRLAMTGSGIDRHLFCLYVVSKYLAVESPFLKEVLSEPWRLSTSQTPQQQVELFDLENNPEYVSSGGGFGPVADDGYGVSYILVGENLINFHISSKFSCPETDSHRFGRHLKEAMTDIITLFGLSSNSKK
The assay is described as follows: L-CPT1 inhibition, spectrophotometric CPT activity assay with DTNB (Ellman's reagent). To be noted: cell-free extracts of P. pastoris expressing human liver CPT1; carnitine 500 μM, palmitoyl-CoA 80 μM, DTNB 300 μM, pH 7.4. The class given is biochemical. The protocol:
The following tests were carried out in order to determine the activity of the compounds of the present invention. Background information on the performed assays can be found in: Jackson et al., 1999, Biochem. J. 341, 483-489 and Jackson et al., 2000, J. Biol. Chem. 275, 19560-19566.
Human liver and muscle CPT1 cDNAs and rat CPT2 cDNA were subcloned in pGAPZB or pGAPZA, respectively. These plasmids were used to transform P. pastoris strain X-33 via electroporation after the preparation of electrocompetent cells. High copy number clones were selected where necessary using 0.5 or 1 mg/ml Zeocin. Cultures for activity measurements were induced for 16 h in YPD medium (1% yeast extract, 2% peptone, 2% glucose). Crude cell extracts were prepared by disrupting the cells with glass beads or French Press, depending on fermenter sizes. After centrifugation, the cell-free extracts were resuspended in cell breaking buffer (50 mM Tris, pH7.4, 100 mM KCl, 1 mM EDTA) in the presence of a protease inhibitor cocktail, before aliquoting and freezing at −20° C.
CPT activity was measured using a spectrophotometric assay using 5,5′-dithio-bis-(2-nitrobenzoic acid) (DTNB) also called Ellman's reagent. The HS-CoA released on the formation of acylcarnitine from carnitine (500 μM) and palmitoyl-CoA (80 μM) reduced DTNB (300 μM) forming 5-mercapto-(2-nitrobenzoic acid) which absorbed at 410 nm with a molar extinction coefficient of 13600 M^−1.cm^−1. The assay buffer contained 120 mM KCl, 25 mM Tris, pH 7.4, 1 mM EDTA. This assay was used for the identification of selective inhibitors of the liver CPT1 isoform versus the muscle CPT1 and CPT2 isoforms.

As for `COc1ccc(Cl)cc1S(=O)(=O)N1CCOc2ccc(C(=O)Nc3ccc(C(=O)O)c(F)c3)cc21` [Example 2, 4-{[4-(5-Chloro-2-methoxy-benzenesulfonyl)-3,4-dihydro-2H-benzo[1,4]oxazine-6-carbonyl]-amino}-2-fluoro-benzoic acid], the half-inhibitory concentration (IC50) amounted to 78 nM.
With `COc1ccc(Cl)cc1S(=O)(=O)N1COCc2ccc(C(=O)Nc3ccc(C(=O)O)cc3)cc21` [Example 73, 4-{[1-(5-Chloro-2-methoxy-benzenesulfonyl)-1,4-dihydro-2H-benzo[d][1,3]oxazine-7-carbonyl]-amino}-benzoic acid] the figure was 56 nM; with `COc1ccc(Cl)cc1S(=O)(=O)N1CC(C(=O)O)Oc2ccc(C(=O)Nc3cccc(F)c3)cc21` (centres unmarked) [Example 113, 4-(5-Chloro-2-methoxy-benzenesulfonyl)-6-(3-fluoro-phenylcarbamoyl)-3,4-dihydro-2H-benzo[1,4]oxazine-2-carboxylic acid], 16 nM; with `O=C(O)Cc1csc(NC(=O)c2ccc3c(c2)N(S(=O)(=O)c2cccc(Cl)c2)CCO3)n1` [Example 92, (2-{[4-(3-Chloro-benzenesulfonyl)-3,4-dihydro-2H-benzo[1,4]oxazine-6-carbonyl]-amino}-thiazol-4-yl)-acetic acid], 23 nM.
With `COc1ccc(Cl)cc1S(=O)(=O)N1COc2ccc(C(=O)Nc3ccc(C(=O)O)c(F)c3)cc21` [Example 32, 4-{[3-(5-Chloro-2-methoxy-benzenesulfonyl)-2,3-dihydro-benzooxazole-5-carbonyl]-amino}-2-fluoro-benzoic acid] the figure was 140 nM.

Values taken from patent US7696200B2, “Bicyclic sulfonamide derivatives which are L-CPT1 inhibitors” (Hoffmann-La Roche Inc., priority 2006, dated 2010).
